pIC50: −log10 of the molar value. Where “and” joins values, the source holds several entries; their conditions need not be identical. Identical values can stand only once. Entries after “also recorded” stand apart in the source; their conditions may differ. Like-named read-outs stand apart in the source and are kept apart here.
Assays:
[1] = test system: ES-D3 cells (differentiation into contracting cardiomyocytes); test: ES-D3 cell differentiation assay of the mouse embryonic stem cell test (mEST); type: cell-based; conditions: for pIC50: Mus musculus, Cardiomyocyte, 240 h, read-out: IC50 for inhibition of differentiation of ES-D3 cells into beating cardiomyocytes; for Outcome in the differentiation assay of the mEST: parent PAH tested without bioactivation
Procedure: The developmental toxicity of the test compounds was assessed by the inhibitory effect on the differentiation of cells of the ES-D3 cell line into contracting cardiomyocytes. The assay was performed essentially as previously described (Kamelia et al. [2020]). The cells were cultured on the lid of a 96-well plate in 45 hanging drops (volume 20 µL/drop) at a concentration of 37,500 cells/ml. The 96 wells were filled with 250 µL PBS to maintain the humidity. Sterile Eppendorf lids were placed at the corners of the 96-well plate to prevent the hanging drops from contacting the 96-well plate. The plates were sealed with micropore tape and incubated at 37 °C with 5% CO2 in a humidified atmosphere for 72 h. After 72 h, 5 ml exposure medium was prepared for each concentration of each test compound with 0.25% DMSO in a 60 × 15 mm petri dish. The formed embryonic bodies (EBs) in the hanging drops on the lid of the 96-well plate were washed off with exposure medium and collected in the petri dish. The Petri dish was subsequently incubated at 37 °C with 5% CO2 in a humidified atmosphere for 48 h. After 48 h, the EBs were transferred to a 24-well plate filled with 1 ml exposure medium per well. Each well contained 1 EB. The 24-well plates were incubated at 37 °C with 5% CO2 in a humidified atmosphere for 120 h. The number of EBs with contracting cardiomyocytes and the undifferentiated EBs were counted under a microscope. In the solvent (DMSO) control, the presence of more than 21 EBs with contracting cardiomyocytes out of 24 EBs indicates a valid assay. In each experiment, 0.5 µM (0.065 µg/ml) 5-FU was used as a positive control. The result of the differentiation assay is expressed as the fraction of differentiated EBs of the total number of EBs.
(§1) The concentration–response data for the test compounds in the mEST were presented in three curves including curves for 1-day cytotoxicity, 5-day cytotoxicity, and 10-day differentiation assays. The obtained curves were fitted using the inhibition equation log (inhibitor) vs response (three parameters) option using GraphPad Prism software 5.0 (California, USA).

[2] = In vivo kinetic study, intravenous 50 mg/kg bw, blood concentrations; conditions: rat, 50 mg/kg bw parent PAH
Procedure: Six male Sprague–Dawley rats at the age of 8–9 weeks weighing 286-305g/rat were obtained from Charles River Inc (Beijing, China). The rats were maintained in plastic cages in two groups of three in a temperature-controlled (ranging from 20 °C to 25 °C) and humidity-controlled (ranging from 40–70%) environment on a 12-h light–dark cycle. The animal bedding was corncob and used after autoclaving. The bedding and the cages were changed twice a week. The number of animals was restricted to 3 per dose group and control blood samples were collected before dosing. Feeding and living conditions followed the Chinese Laboratory Animal-Requirement of environment and housing facilities (GB14925-2010). The present rat study was approved by Institutional Animal Care and Use Committee (IACUC-BF202305006).
All animals were fasted 8 h before intravenous injection and resumed feed supply 4 h after dosing.
After administration, blood samples (0.1–0.2 ml blood volume) were taken from the medial canthus venous plexus of the animal and anticoagulated with sodium heparin. Prior to orbital venipuncture and blood collection, the animals were anesthetized by CO2 inhalation (70% CO2 + 30% O2). Blood was sampled at 1 min, 0.5, 1, 2, 4, 8, 12, 24, 32, 48, and 72 h post-dosing. After collection, blood samples were frozen and were stored at −20 °C until analysis. All animals were euthanized with 100% CO2 after the experiment.
Aliquots of 100 µL of blood samples were transferred into centrifuge tubes and 700 µL sodium acetate buffer (0.1M, pH 5.0) and 6 µL β-glucuronidase-arylsulfatase were added. The samples were incubated for 1 h at 37 °C and subsequently extracted twice with 800 µL ethyl acetate saturated with water. The samples were shaken for 30 min and centrifuged 5 min at 2000 g (4 °C). The upper organic phase was transferred to a centrifuge tube and evaporated under a gentle stream of nitrogen at 40 ℃ in a water bath. The residues were re-dissolved with 200 µL ascorbic acid:methanol (1:100). […]

[3] = test system: ES-D3 cells; test: ES-D3 cell cytotoxicity (WST-1 viability) assay of the mEST; type: cell-based, mouse
Procedure: The viability of the ES-D3 cells following 1-day and 5-day exposure to the test compounds was measured with the WST-1 assay. To this end, 100 µL cell suspension was seeded in the inner 60 wells of 96-well plates at a concentration of 2 × 10^5 cells/ml for 1-day exposure and 10^4 cells/ml for 5-day exposure and incubated at 37 °C with 5% CO2 for 24 h. After 24 h, 100 µL exposure medium with 0.25% DMSO and the required concentration of the test compounds, solvent control, and positive control were added to the cells in triplicate. The plates were incubated at 37 °C with 5% CO2 for 1 day or 5 days until measurement. After the exposure period, 20 µL of the cell proliferation reagent WST-1 were added to each well that contained cells and the cells were incubated for 3 h at 37 °C with 5% CO2. The absorbance of each plate was measured at 440 nm and 620 nm with a SpectraMax iD3 (San Jose, USA).
as §1

[4] = test system: P450 enzymes in rat liver microsomes; test: P450-mediated oxidative metabolism of 8-MBaP/BaP in rat liver microsomes; type: in vitro ADME
Procedure: 3-OH-8-MBaP was subsequently modeled to be conjugated by glucuronidation and sulfation in the liver. The kinetic constants for these conjugation reactions were determined in incubation experiments described in Sect. […] The scaling factors from rat liver microsomes and rat liver S9 to the whole liver were 45 mg microsomal protein/g liver and 125 mg S9 protein/g liver, respectively (Houston and Galetin [2008]).

[5] = test system: P450 enzymes in rat liver microsomes; design: method as in Wang et al. 2022; conditions: cited from earlier work
[6] = test system: rats; design: method as in Archibong et al. 2002; conditions: rat; derived from reported in vivo dose–response data; ref Archibong et al. 2002; cited from earlier work
[7] = test system: rats; test: PBK modeling-facilitated reverse dosimetry (QIVIVE) of mEST data to predict developmental toxicity; conditions: rat
Procedure: The relationship between the in vivo 3-OH-8-MBaP concentration in maternal blood (C in vivo) and the in vitro 3-OH-8-MBaP concentration in the mEST (Cin vitro) was described by the following Eq. (2): 2 Cinvivo∗fub,invivo=Cinvitro∗fub,invitro
The fraction unbound in blood (fub, in vivo) of 3-OH-8-MBaP was calculated as 0.004 (Table 2) based on the methodology mentioned in Sect. “PBK model for 8-MBaP in rats”. The fraction unbound in the mEST (fub, in vitro) was assumed to be half of the fub, in vivo based on the ratio between the protein content in rat blood plasma (7.5%) and the mEST assay medium (15%). The unbound concentration in vitro (Cub, in vitro) inducing the developmental toxicity response in mEST was converted using Eq. (2) to an unbound concentration in blood (Cub,in vivo) that was further converted by the PBK model to a predicted oral dose.

[8] = test system: rats; design: method as in Wang et al. 2021; conditions: rat, oral exposure, previously predicted dose–response curve; ref Wang et al. 2021; cited from earlier work
[9] = design: method as in Sun et al. 2002; conditions: 8-MBaP assumed to be the same as BaP; ref Sun et al. 2002; cited from earlier work
[10] = scaled to whole liver, liver weight 9.1 g
[11] = scaled with 45 mg microsomal protein/g liver

Oc1ccc2ccc3c4ccccc4cc4ccc1c2c43 [3-OHBaP, 3-hydroxy-benzo[a]pyrene, reference compound]
pIC50 [1]: 5.82 | Observed in vivo Cmax relative to the model prediction (lower) [2]: 2.6 fold | Cytotoxicity accompanying the inhibition of differentiation ([3]; 1-day and 5-day cytotoxicity, ES-D3 cells): non-cytotoxic concentrations

Cc1ccc2c(c1)cc1ccc3cccc4ccc2c1c34 [8-MBaP, 8-methyl-benzo[a]pyrene]
Scaled Vmax, 8-MBaP to 3-OH-8-MBaP [4, 10]: 2 µmol/h/liver | Scaled Vmax, 8-MBaP to other metabolites [4, 10]: 11 µmol/h/liver | Scaled Vmax, 8-MBaP to 3-OH-8-MBaP [4, 11]: 0.19 µmol/h/g liver | Scaled Vmax, 8-MBaP to other metabolites [4, 11]: 1.18 µmol/h/g liver | Km ([5]; read-out: Km, 8-MBaP to 3-OH-8-MBaP, ref Wang et al. 2022, listed as 8MBaP): 12 µM | Km ([5]; read-out: Km, 8-MBaP to 3-OH-8-MBaP, ref Wang et al. 2022): 11.6 µM | Km ([5]; read-out: Km, 8-MBaP to other metabolites, sum of other metabolites, ref Wang et al. 2022, listed as 8MBaP): 8 µM | Km ([5]; read-out: Km, 8-MBaP to other metabolites, sum of other metabolites, ref Wang et al. 2022): 8.07 µM | Vmax, 8-MBaP to 3-OH-8-MBaP ([5]; ref Wang et al. 2022): 0.07 nmol/min/mg microsomal protein and 0.07^a nmol/min/mg microsomal protein | Vmax, 8-MBaP to other metabolites ([5]; sum of other metabolites, ref Wang et al. 2022): 0.43 nmol/min/mg microsomal protein and 0.43^a nmol/min/mg microsomal protein | pIC50 [1]: 6.08 | Outcome in the differentiation assay of the mEST [1]: negative | pIC50 ([3]; Mus musculus, 120 h, 5-day exposure, WST-1, read-out: IC50 for reduction of cell viability on Day 5): 5.76

c1ccc2c(c1)cc1ccc3cccc4ccc2c1c34 [BaP, benzo[a]pyrene]
ED50 for developmental toxicity, in vivo toxicity study [6]: 10.8 mg/kg bw | Predicted ED50 of BaP (present study) relative to previously predicted ED50 of BaP (lower) ([7]; oral, versus Wang et al. 2021): 0.9 fold | Predicted ED50 of BaP (present study) relative to ED50 from the reported in vivo study (higher) ([7]; versus Archibong et al. 2002): 1.3 fold | ED50 for developmental toxicity, model prediction [8]: 15.1 mg/kg bw | Outcome in the differentiation assay of the mEST [1]: inactive; also recorded: negative | Permeability coefficient (Papp), apparent intestinal permeability in vivo [9]: 0.02 dm/hr

From publication PMC12454603 (Archives of Toxicology, 2025)
